Data on one compound can be found in patent US8404665B2, “In vivo use of glutathione S-transferase activated nitric oxide donors” (University of Utah Research Foundation, priority 2002, dated 2013).

Read-outs that look alike come from different tables or passages of the source.

In one data set the test system is PPC-1 cells. As to the kind of experiment: Subcutaneous PPC-1 tumor implants in NOD/SCID mice. It is filed as in vivo. As to the method:
To study the in vivo antineoplastic potency of JS-K, NOD/SCID mice were injected in the flanks subcutaneously with HL-60 or PPC-1 cells (2.5×10^6 cells per flank). When subcutaneous tumors were palpable, treatment with JS-K or an equal volume of vehicle (20% dimethyl sulfoxide in PBS) was started using the indicated doses and route. Tumor size was measured daily or every other day using a Vernier caliper. Tumor volume was calculated using the formula: width×length×[(width+length)/2]×0.5236. Fifteen to 20 days after tumor cell implantation, animals were sacrificed by CO2 inhalation and tumors were collected for histochemical analysis.
Histological Analysis of Tumors. After sacrifice, subcutaneous tumors were dissected out, fixed in 10% formaldehyde and imbedded in paraffin. Four-um sections were cut and stained with Hematoxylin and Eosin.
To determine if JS-K is cytotoxic to solid tumors, the effect of JS-K on the in vitro and in vivo growth of the prostate cancer cell line PPC-1 was studied. Similar to studies in HL-60 cells, indications are that JS-K appears to be a potent growth inhibitor for prostate cancer cells in vitro and in vivo. For the in vitro experiments, JS-K was added to PPC-1 cells at 1, 2, 3, 4, and 5 μM concentrations. […] For the in vivo experiments, NOD/SCID mice were inoculated subcutaneously with […] PPC-1 cells, as described above. When the subcutaneous tumors were measurable, JS-K was administered intravenously at a dose of 4 μmol/kg or an equal volume of vehicle 3 times per week.
In order to determine whether JS-K inhibits the in vivo growth of solid tumor cells, NOD/SCID mice were implanted with 2.5×10^6 PPC-1 (prostate carcinoma) cells and treated with 4 μmol/kg JS-K or an equal volume of vehicle intravenously 3 times a week. Similar to the observation with HL-60 cells, JS-K treatment appeared to inhibit the growth of PPC-1 cells in vivo. Nineteen days after start of therapy, subcutaneous tumor implant volumes were 0.368±0.082 and 0.107±0.053 cm^3 (P=0.0073) in vehicle and JS-K-treated animals, respectively. […]

The test system of the next data set is DLD-1. As to the kind of experiment: DLD-1 solid tumor cell growth. Format: cell-based. As to the method:
(§1) Cell Lines and Culture Conditions. HL-60, DLD1, and U937 cells were obtained from ATCC (Rockville, Md.). Meth A cells were from Dr. Wolfram Samlowski (University of Utah, Salt Lake City, Utah). The PPC-1 cell line was provided by Dr. Graeme Bolger (University of Alabama, Birmingham, Ala.). For the cell growth and apoptosis experiments, cells were cultured at a density of 150,000 cells/ml in RPMI-1640 with 10% fetal bovine serum at 37° C. in a 5% CO2 humidified atmosphere. Agents were added at the indicated concentrations 24 h after culture initiation. At the indicated time intervals, cells were harvested and washed twice in phosphate buffered saline (PBS) prior to processing for analysis of growth, differentiation, and apoptosis.
Cell Growth, Differentiation and Apoptosis Assays. The number of viable cells was determined using the MTT assay according to the manufacturer's protocol (Promega, Madison, Wis.) or using a Coulter counter. […] The assay is useful in calorimetric quantitation of cell viability and proliferation. In contrast, cell differentiation was evaluated using Wright and Non-Specific Esterase (NSE) staining of cells collected on microscope slides by cytospin as previously described (Magrinat, G. et al. (1992) Blood 80: 1880-1884). […]

Data set [1] can be described thus: NO release by chemiluminescence detection, GSH without enzyme. It is filed as physicochemical. As to the method:
Measurement of NO Release. Chemiluminescence detection and quantification of NO evolving from the reactions of JS-K were conducted using an NO-specific Thermal Energy Analyzer (Model 502A, Thermedics, Analytical Instrument Division, Waltham, Mass.) essentially as previously described (Keefer, L. K. et al. (1996) Methods Enzymol. 268: 281-293). Briefly, pH 7.4 phosphate buffer containing 1 mM GSH was sparged with inert gas until a steady detector response was established. Where indicated, GSTs were added to a final concentration of 1.67 ug of enzyme/ml. […] The resulting curve was integrated to quantify the amount of NO released/mole of compound.
These reactions led to NO generation as predicted as indicated by purging gases from the solution as they formed into an NO-specific chemiluminescence detector. […] In the absence of enzyme, NO release began immediately upon adding GSH, increasing in rate until plateauing at 8 min and integrating to a total of 1.1 mol of NO per mol of JS-K within 43 min of mixing.

Another data set has as its system HL-60 cells. As to the kind of experiment: HL-60 leukemia cell growth (Coulter counter or MTT assay). The note with it: for cell growth, % of untreated control cells: HL-60, MTT, three days. It is filed as cell-based, human. As to the method:
as §1
Cell Growth, Differentiation and Apoptosis Assays. The number of viable cells was determined using the MTT assay according to the manufacturer's protocol (Promega, Madison, Wis.) or using a Coulter counter. Briefly, a MTT assay is an analytical technique that uses the dye dimethylthiazolyl-diphenyltetrazolium (MTT) which turns from yellow to brownish-purple as it is reduced in the mitochondria of living cells. The assay is useful in calorimetric quantitation of cell viability and proliferation. In contrast, cell differentiation was evaluated using Wright and Non-Specific Esterase (NSE) staining of cells collected on microscope slides by cytospin as previously described (Magrinat, G. et al. (1992) Blood 80: 1880-1884). Apoptosis was assayed by flow cytometry and by determining DNA fragmentation using agarose gel electrophoresis as previously described (Shami, P. J. et al. (1998) Leukemia 12: 1461-1466). For the flow cytometry assay, we used the propidium iodide staining method of Nicoletti et al. (Nicoletti, I. et al. (1991) J. Immunol. Methods 139: 271-279).
For the initial screen, HL60 cells were cultured in triplicate in RPMI1640/10% FBS under standard conditions. Compounds were added to the cultures at the following concentrations: 0, 0.1, 1, 10, and 100 micromolar (uM). Three days after addition of the compounds cell growth was determined either using a Coulter counter or using the MTT assay.
The antiproliferative effects in the human AML (Acute Myeloid Leukemia) cell lines, HL-60 (myeloid leukemia) and U937 (monoblastic leukemia) cells were treated with JS-K for a period of 3 days, upon which cell growth was evaluated using a Coulter counter (CITY, STATE). JS-K was added to HL-60 cells at 0, 0.25, 0.5, 0.75, and 1.0 μM concentrations. […] Similar results were obtained in U937 cells under similar conditions.
(In general: Formazan colour is commonly taken as a measure of viable cells.)

Setting [2] is: 4 μmol/kg i.v. 3 times per week.

Consider `CCOC(=O)N1CCN(/[N+]([O-])=N/Oc2ccc([N+](=O)[O-])cc2[N+](=O)[O-])CC1` [JS-K, O^2-(2,4-dinitrophenyl) 1-[(4-ethoxycarbonyl)piperazin-1-yl]diazen-1-ium-1,2-diolate], for which, in the data set on PPC-1 cells (setting [2]), the “prostate cancer growth in vivo” value is “significant delay in prostate cancer growth in vivo”. Besides, the “tumor histology (necrosis)” value with PPC-1 cells (setting [2]) was “high degree of extensive tumor necrosis”. In the data set with PPC-1 cells (nineteen days after start of therapy, vehicle 0.368±0.082, P=0.0073), the “subcutaneous tumor implant volume” value is reported as 0.107±0.053 cm^3. For the same compound, the “IC50 relative to leukemia lines” value with DLD-1 is listed as “an order of magnitude greater than those for the two leukemia lines”. For the same compound, in data set [1] (1 mM GSH, no enzyme), the “time at which NO release rate plateaued” value came out at 8 min. Moreover, the “total NO released” value in data set [1] (1 mM GSH, pH 7.4 phosphate, 0.67 uM JS-K, no enzyme, within 43 min of mixing) is recorded as 1.1 mol of NO per mol of JS-K. For the same compound, in data set [1] (pH 7.4 phosphate/0.67 uM JS-K solution), the “NO detection without GSH” value is listed as “did not appear to be detected until 1 mM GSH was added”. For the same compound, the IC50 with HL-60 cells (HL-60, 3 days, Coulter counter, mean of 3 studies, read-out: IC50, cell growth) amounted to 220 nM; with HL-60 cells (HL-60, initial screen, at three days, read-out: 50% growth inhibitory concentration (IC50)), 220 nM; in the data set on HL-60 cells (HL-60 assay system, comparison with chemotherapeutic agents, read-out: IC50, growth inhibition) it was 500 nM. In addition, the results for the “cell growth, % of untreated control cells” value in the data set with HL-60 cells (0.75 uM) and in the data set with HL-60 cells (0.75 uM JS-K together with 50 uM C-VAD-FMK) were 28+/−0.79% and 79+/−2.4%, respectively. The “JS-K-induced growth inhibition after NAC pretreatment” value in the data set on HL-60 cells (HL-60, pretreatment 2-6 h with NAC) is recorded as “prevented the JS-K-induced growth inhibition”. The “JS-K-induced growth inhibition after BSO pretreatment” value in the data set with HL-60 cells (HL-60, pretreatment with BSO for 2-6 h) was “did not appear to prevent the JS-K-induced growth inhibition”; in the data set with HL-60 cells (HL-60, pretreatment with BSO for 24 h) it was “appeared to enhance the effects”.
